Here are results for twelve molecules from ChEMBL document CHEMBL5532764, “Identification of SARS-CoV-2 Mpro inhibitors through deep reinforcement learning for de novo drug design and computational chemistry approaches” (RSC Med Chem, 2024).

Test [1] concerns the target Procathepsin L (Homo sapiens, UniProt P07711). Description: Inhibition of human liver Cathepsin L using Z-Phe-Arg7-amido-4-methylcoumarin hydrochloride as substrate by FRET assay.
The target in test [2] is Replicase polyprotein 1ab (Severe acute respiratory syndrome coronavirus 2, UniProt P0DTD1).

Chain of Procathepsin L (P07711 whole entry): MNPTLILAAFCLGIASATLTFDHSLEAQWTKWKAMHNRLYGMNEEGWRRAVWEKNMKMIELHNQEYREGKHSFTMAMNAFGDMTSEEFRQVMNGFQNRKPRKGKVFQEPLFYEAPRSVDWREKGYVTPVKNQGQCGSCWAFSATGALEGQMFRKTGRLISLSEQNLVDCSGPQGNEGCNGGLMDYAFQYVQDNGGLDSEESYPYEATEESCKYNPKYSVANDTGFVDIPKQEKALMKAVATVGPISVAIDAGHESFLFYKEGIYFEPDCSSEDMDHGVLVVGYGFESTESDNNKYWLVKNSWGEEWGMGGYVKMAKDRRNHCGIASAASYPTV

`O=C(c1cncc(Cl)c1)N1CCCN(Cc2ccccc2Cl)CC1` came in with an IC50 in test [1] greater than 125 µM.
On the same count and under the same terms, for `Cc1cncc(CC(=O)N2CCC[C@H]2c2cccc(Cl)c2)c1` the value was greater than 125 µM.
Turning to `O=C1N(Cc2ccc(Cl)cc2Cl)CCN1c1cncc2ccccc12`, in test [1], the IC50 was greater than 125 µM.
As to `O=C(c1cccnc1)N1CCN(Cc2cc(Cl)cc(Cl)c2OC(F)F)CC1`, the IC50 is greater than 125 µM in test [1] and 63 µM in test [2].
Molecule `O=C(Nn1cnc2c(F)cc(F)cc21)C1COc2cc(Cl)c(Cl)cc21` (racemic) registered an IC50 in test [1] of 103 µM.
Still for that read-out and setting: as for `Cc1cncc(CC(=O)N2CCc3cc(Cl)c(Cl)cc3C2)c1`, the figure is greater than 125 µM.
As to `O=C(c1cccnc1)N1CCN(Cc2cccc(Cl)c2Cl)CC1`, the IC50 in test [1] was greater than 125 µM; in test [2] it was 63.5 µM.
For `O=C1N[C@@H](Cc2cc(Cl)ccc2F)C(=O)N1c1cncc(F)c1`, in test [1], the IC50 was greater than 125 µM.
Still for that read-out and setting: as for `O=C(Cc1cccnc1)N1CCc2c(Cl)cc(Cl)cc2C1`, the figure is greater than 125 µM; as for `O=C1N(Cc2ccccc2Cl)CCN1c1cncc2ccc(Cl)cc12`, greater than 125 µM.
On the same count and under the same terms, for `N#Cc1ccccc1CN1CCCN(C(=O)c2cncc(Cl)c2)CC1` the value was greater than 125 µM; for `O=C(c1cncc2ccc(F)cc12)N1CCN(Cc2ccc(Cl)cc2Cl)CC1`, greater than 125 µM.

A word on the IC50: it is the concentration that inhibits the measured activity by half. Read a low IC50 as greater potency.
